In one data set the test system is patients with IgAN. The data set is described as follows: Phase 2 study in patients with IgAN (CLNP023X2203), interim analysis. The class given is in vivo, human.
In a further data set the test system is alternative pathway. The data set is described as follows: Wieslab assay (least sensitive alternative pathway biomarker), FIH trial CLNP023X2101. It counts as in vivo, human. As to conditions: 200 mg b.i.d. Here is the method: The study will first investigate the treatment effect of iptacopan 200 mg b.i.d. on top of SoC compared to SoC alone (Part 1). This dose was chosen based on the least sensitive alternative pathway biomarker (Wieslab assay); it ensures >90% target inhibition in more than 70% of individuals, as determined from FIH trial CLNP023X2101. Dose range finding with doses between 10 to 200 mg b.i.d was performed in Phase 2 studies in IgAN, C3G and PNH.

Data set [1] can be described thus: Healthy volunteer studies CLNP023X2101 and CLNP023X1102 (SAD and MAD). It counts as in vivo.
The next data set deals with PNH patients. The data set is described as follows: Phase 2 studies in PNH (CLNP023X2201 add-on to eculizumab, CLNP023X2204 monotherapy). It counts as in vivo, human.
A further data set has as its system patients with C3G. The data set is described as follows: Phase 2 study in patients with C3G (CLNP023X2202), interim analysis. It counts as in vivo, human. To be noted: 200 mg b.i.d.
Setting [2] is: 200 mg b.i.d. compared to placebo.
Setting [3] is: 102 subjects, SAD 10 to 400 mg, MAD 10 to 200 mg b.i.d. for 2 weeks.
The mark [4] stands for this setting: 200 mg b.i.d., add-on to eculizumab and monotherapy, majority of patients, preliminary data.

Each structure is given as a SMILES string. A value given as a limit tells only on which side of the number the result lay.

As to `CCO[C@H]1CCN(Cc2c(OC)cc(C)c3[nH]ccc23)[C@H](c2ccc(C(=O)O)cc2)C1` [iptacopan, 4-((2S,4S)-(4-ethoxy-1-((5-methoxy-7-methyl-1H-indol-4-yl)methyl)piperidin-2-yl))benzoic acid], the safety profile entry in the data set on patients with IgAN is listed as “overall well-tolerated safety profile”. In the data set on patients with IgAN (setting [2]), the UPCR entry is on record as “clinically meaningful UPCR reduction” and the eGFR levels entry was “stable/improving”. In the data set with patients with IgAN (at 90 days, primary endpoint), the “dose-response effect on UPCR” value is “statistically significant dose-response effect”. The “proportion of individuals with >90% target inhibition” value in the data set with alternative pathway is on record as “more than 70%”. The “target inhibition (Wieslab assay)” value in the data set on alternative pathway (reached in more than 70% of individuals) is listed as over 90%. Besides, in data set [1] (setting [3]), the “deaths, SAEs, AEs leading to study drug discontinuation” value is given as “No deaths, serious adverse events (SAEs), or adverse events (AEs) leading to study drug discontinuation were observed” and the tolerability entry is “well tolerated”. The solubility entry in data set [1] (as reported from the healthy volunteer studies) is recorded as “high”. Besides, the absorption entry in data set [1] (healthy volunteers, SAD/MAD) is on record as “fast”. Also, in the data set with PNH patients (setting [4]), the LDH levels entry is “reduction in LDH levels” and the “hemoglobin in the absence of RBC transfusions” value is recorded as “improvements in hemoglobin”. For the same compound, the hemolysis entry in the data set on PNH patients (200 mg b.i.d., preliminary data) is “control of both intra- and extravascular hemolysis”. In addition, in the data set on PNH patients (both PNH studies), the safety and tolerability entry is “overall safe and well tolerated”. The tolerability result in the data set with patients with C3G is “well-tolerated”. Besides, in the data set with patients with C3G (at 12 weeks), the eGFR entry was “stabilization” and the “reduction in UPCR” value is reported as 49%.
